The results in this text go back to ChEMBL document CHEMBL4842368, “Berotralstat (BCX7353): Structure-Guided Design of a Potent, Selective, and Oral Plasma Kallikrein Inhibitor to Prevent Attacks of Hereditary Angioedema (HAE)” (J Med Chem, 2021).

Values after ≈ are worked out from the molar mass of the structure shown.

The nature of data set [1]: AUC(0 to 96 hrs) in rat at 3 mg/kg, iv. As to conditions: in vivo. The class given is ADME, organism-based. Also on record: time < 96 hr, route intravenous, dose 3 mg/kg.
Data set [2] is described as follows: AUC(0 to 24 hrs) in rat at 30 mg/kg, po. More on the design: time < 24 hr, route oral, dose 30 mg/kg. As to conditions: in vivo. The class given is ADME, organism-based.
Data set [3] in a line: Solubility of compound at pH 7. Type of data set: physicochemical. As to conditions: buffer.
Data set [4] can be described thus: Cmax in rat at 30 mg/kg, po. Type of data set: ADME, organism-based. Also on record: route oral, dose 30 mg/kg. As to conditions: in vivo.
A short description of data set [5]: AUC(0 to 96 hrs) in rat at 30 mg/kg, po. Type of data set: ADME, organism-based. As to conditions: in vivo. Also on record: time < 96 hr, route oral, dose 30 mg/kg.
Data set [6] is described as follows: Clearance in monkey at 25 mg/kg, po. The class given is ADME, organism-based, Macaca mulatta. The conditions noted are these: rhesus monkey, in vivo.
The nature of data set [7]: Half life in rat at 3 mg/kg, iv. The conditions noted are these: in vivo. Type of data set: ADME, organism-based.
Data set [8] can be described thus: AUC(0 to 24 hrs) in monkey at 2.5 mg/kg, iv. The class given is ADME, organism-based, Macaca mulatta. Also on record: time < 24 hr, route intravenous, dose 2.5 mg/kg. The conditions noted are these: rhesus monkey, in vivo.
A short description of data set [9]: Half life in monkey at 2.5 mg/kg, iv. Type of data set: ADME, organism-based, Macaca mulatta. The conditions noted are these: rhesus monkey, in vivo.
The nature of data set [10]: Half life in rat at 30 mg/kg, po. Type of data set: ADME, organism-based. The conditions noted are these: in vivo.
A further data set concerns the target T1, Coagulation factor XII (Homo sapiens, UniProt P00748).
T1 sequence (P00748 whole entry): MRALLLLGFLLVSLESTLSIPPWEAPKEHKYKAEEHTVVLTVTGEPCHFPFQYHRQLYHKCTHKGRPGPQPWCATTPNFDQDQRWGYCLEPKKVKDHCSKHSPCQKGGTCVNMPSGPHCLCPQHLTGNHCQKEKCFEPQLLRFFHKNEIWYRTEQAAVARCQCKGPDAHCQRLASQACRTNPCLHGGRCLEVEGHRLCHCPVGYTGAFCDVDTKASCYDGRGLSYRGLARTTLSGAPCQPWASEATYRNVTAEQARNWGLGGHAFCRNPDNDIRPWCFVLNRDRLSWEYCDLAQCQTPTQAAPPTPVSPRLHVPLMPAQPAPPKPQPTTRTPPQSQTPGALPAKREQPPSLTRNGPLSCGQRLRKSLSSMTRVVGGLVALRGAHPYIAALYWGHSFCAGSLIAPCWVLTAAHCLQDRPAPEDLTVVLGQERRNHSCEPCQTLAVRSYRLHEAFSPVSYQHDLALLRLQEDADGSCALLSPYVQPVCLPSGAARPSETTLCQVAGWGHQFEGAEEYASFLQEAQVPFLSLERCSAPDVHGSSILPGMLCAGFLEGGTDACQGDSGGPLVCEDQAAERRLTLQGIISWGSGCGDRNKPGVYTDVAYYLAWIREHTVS
Put plainly: Inhibition of human factor 12a using D-prolyl-L-phenylalanyl-L-arginine-p-nitroaniline as substrate measured after 5 mins by plate reader analysis.

The nature of data set [11]: Cmax in monkey at 2.5 mg/kg, iv. The class given is ADME, organism-based, Macaca mulatta. Also on record: route intravenous, dose 2.5 mg/kg. The conditions noted are these: rhesus monkey, in vivo.
The target of the next data set is Coagulation factor X (Homo sapiens, UniProt P00742). Put plainly: Inhibition of human factor 10a using N-a-Benzyloxycarbonyl-D-arginyl-L-glycyl-L-arginine-pnitroaniline-dihydrochloride as substrate measured after 5 mins by plate reader analysis.
Chain of Coagulation factor X (P00742 41-179 limits assumed): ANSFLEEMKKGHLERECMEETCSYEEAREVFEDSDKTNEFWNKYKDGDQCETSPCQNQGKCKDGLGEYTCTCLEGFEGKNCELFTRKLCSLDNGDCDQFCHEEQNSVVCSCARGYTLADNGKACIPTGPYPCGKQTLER
Chain of Coagulation factor X (P00742 235-488 limits assumed): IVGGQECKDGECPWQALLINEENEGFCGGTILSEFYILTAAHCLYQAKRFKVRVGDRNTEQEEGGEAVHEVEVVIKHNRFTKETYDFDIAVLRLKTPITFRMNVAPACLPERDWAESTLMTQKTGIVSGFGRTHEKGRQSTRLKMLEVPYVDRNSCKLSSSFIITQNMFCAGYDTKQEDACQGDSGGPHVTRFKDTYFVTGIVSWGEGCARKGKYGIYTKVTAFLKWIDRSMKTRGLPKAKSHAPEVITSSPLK
The target of the next data set is Prothrombin (Homo sapiens, UniProt P00734). Description: Inhibition of human thrombin using Nalpha-Benzoyl-Phe-Val-Arg p-nitroaniline as substrate measured after 5 mins by plate reader analysis.
Data set [12] is described as follows: Oral bioavailability in rat at 30 mg/kg. The class given is ADME, organism-based. As to conditions: in vivo.
Data set [13] has as its target T2, Complement C1s subcomponent (Homo sapiens, UniProt P09871).
T2 sequence (P09871 whole entry): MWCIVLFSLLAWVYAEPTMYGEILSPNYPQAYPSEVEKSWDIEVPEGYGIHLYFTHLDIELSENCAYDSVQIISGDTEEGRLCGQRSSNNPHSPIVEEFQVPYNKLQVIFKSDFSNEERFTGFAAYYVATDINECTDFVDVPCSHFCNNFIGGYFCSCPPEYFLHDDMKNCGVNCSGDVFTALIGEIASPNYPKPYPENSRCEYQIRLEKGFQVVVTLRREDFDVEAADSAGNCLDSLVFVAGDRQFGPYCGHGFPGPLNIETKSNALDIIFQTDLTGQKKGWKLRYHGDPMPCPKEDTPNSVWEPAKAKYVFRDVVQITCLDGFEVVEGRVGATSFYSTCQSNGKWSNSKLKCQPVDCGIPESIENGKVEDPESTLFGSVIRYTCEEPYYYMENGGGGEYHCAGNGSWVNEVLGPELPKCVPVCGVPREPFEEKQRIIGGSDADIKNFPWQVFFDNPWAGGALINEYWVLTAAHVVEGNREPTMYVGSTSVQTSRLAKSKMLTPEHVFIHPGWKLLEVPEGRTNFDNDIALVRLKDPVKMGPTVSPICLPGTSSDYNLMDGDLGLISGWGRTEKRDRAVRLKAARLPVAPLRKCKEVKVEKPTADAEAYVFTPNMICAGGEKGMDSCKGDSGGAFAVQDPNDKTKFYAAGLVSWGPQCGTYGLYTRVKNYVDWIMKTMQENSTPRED
Put plainly: Inhibition of human C1s using […] as substrate measured immediately by plate reader analysis.

Data set [14] in a line: Oral bioavailability in monkey at 25 mg/kg. Type of data set: ADME, organism-based, Macaca mulatta. As to conditions: rhesus monkey, in vivo.
Data set [15] is described as follows: Clearance in rat at 30 mg/kg, po. Type of data set: ADME, organism-based. The conditions noted are these: in vivo.
Data set [16] is described as follows: Tmax in rat at 30 mg/kg, po. The class given is ADME, organism-based. The conditions noted are these: in vivo.
For the next data set, the target named is Plasminogen (Homo sapiens, UniProt P00747). Put plainly: Inhibition of human plasmin using Z-Lys-SBzl as substrate measured immediately by plate reader analysis.
Chain of Plasminogen (P00747 97-580 limits assumed): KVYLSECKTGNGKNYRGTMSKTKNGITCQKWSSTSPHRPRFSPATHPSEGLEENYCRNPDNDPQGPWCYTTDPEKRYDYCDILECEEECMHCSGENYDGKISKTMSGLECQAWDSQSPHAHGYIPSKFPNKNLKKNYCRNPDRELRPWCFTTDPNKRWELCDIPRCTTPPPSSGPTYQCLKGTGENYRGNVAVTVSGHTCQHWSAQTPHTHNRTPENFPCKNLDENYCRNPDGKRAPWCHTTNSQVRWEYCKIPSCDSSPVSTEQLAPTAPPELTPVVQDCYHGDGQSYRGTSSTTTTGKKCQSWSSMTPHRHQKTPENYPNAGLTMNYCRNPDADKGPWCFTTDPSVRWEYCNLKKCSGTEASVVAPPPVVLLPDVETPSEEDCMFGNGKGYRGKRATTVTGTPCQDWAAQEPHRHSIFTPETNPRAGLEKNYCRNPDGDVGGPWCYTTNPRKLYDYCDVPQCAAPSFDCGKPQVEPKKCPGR
Chain of Plasminogen (P00747 581-810 limits assumed): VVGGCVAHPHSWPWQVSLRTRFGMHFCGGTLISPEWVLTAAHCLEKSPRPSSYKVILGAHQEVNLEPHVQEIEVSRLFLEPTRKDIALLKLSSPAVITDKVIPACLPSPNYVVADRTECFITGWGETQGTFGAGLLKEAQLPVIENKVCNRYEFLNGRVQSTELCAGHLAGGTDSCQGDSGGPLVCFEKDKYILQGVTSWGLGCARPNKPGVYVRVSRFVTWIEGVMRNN
Data set [17] is described as follows: Solubility of compound at pH 4. The class given is physicochemical. The conditions noted are these: buffer.
Data set [18] can be described thus: Cmax in rat at 10 mg/kg, po. Type of data set: ADME, organism-based. Also on record: route oral, dose 10 mg/kg. As to conditions: in vivo.
The nature of data set [19]: AUC in rat at 10 mg/kg, po after 24 hrs. The conditions noted are these: in vivo. More on the design: route oral, time 24 hrs, dose 10 mg/kg. The class given is ADME, organism-based.
Another data set addresses Trypsin (Homo sapiens, UniProt P07477+P07478+P35030). Put plainly: Inhibition of human trypsin using Nalpha-Benzoyl-L-Arginine p-nitroaniline as substrate measured after 5 mins by plate reader analysis. The class given is protein assay.
The nature of data set [20]: Tmax in monkey at 25 mg/kg, po. The class given is ADME, organism-based, Macaca mulatta. As to conditions: rhesus monkey, in vivo.
The nature of data set [21]: Clearance in rat at 3 mg/kg, iv. As to conditions: in vivo. The class given is ADME, organism-based.
For data set [22], the target named is Tissue-type plasminogen activator (Homo sapiens, UniProt P00750). Put plainly: Inhibition of recombinant human tPA using H-D-Isoleucyl-L-prolyl-L-arginine p-nitroaniline dihydrochloride as substrate measured after 5 mins by plate reader analysis.
Chain of Tissue-type plasminogen activator (P00750 whole entry): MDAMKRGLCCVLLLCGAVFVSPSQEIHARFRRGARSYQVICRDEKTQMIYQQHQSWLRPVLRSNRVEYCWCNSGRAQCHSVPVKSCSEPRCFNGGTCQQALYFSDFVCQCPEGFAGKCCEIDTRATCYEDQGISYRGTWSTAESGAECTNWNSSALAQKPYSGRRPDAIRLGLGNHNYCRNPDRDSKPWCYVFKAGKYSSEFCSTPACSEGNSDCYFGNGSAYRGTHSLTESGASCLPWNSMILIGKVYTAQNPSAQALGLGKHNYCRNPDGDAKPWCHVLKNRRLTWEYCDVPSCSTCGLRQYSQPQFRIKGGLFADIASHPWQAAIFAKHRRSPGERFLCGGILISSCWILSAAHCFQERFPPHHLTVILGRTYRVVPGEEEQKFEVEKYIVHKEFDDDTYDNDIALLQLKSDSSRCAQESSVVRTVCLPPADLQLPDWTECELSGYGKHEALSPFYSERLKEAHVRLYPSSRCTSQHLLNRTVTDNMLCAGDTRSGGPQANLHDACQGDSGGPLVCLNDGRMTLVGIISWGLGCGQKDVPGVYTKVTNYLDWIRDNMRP
Data set [23] in a line: AUC(0 to 24 hrs) in rat at 3 mg/kg, iv. Also on record: time < 24 hr, route intravenous, dose 3 mg/kg. The conditions noted are these: in vivo. The class given is ADME, organism-based.
Data set [24] can be described thus: Clearance in monkey at 2.5 mg/kg, iv. The class given is ADME, organism-based, Macaca mulatta. The conditions noted are these: rhesus monkey, in vivo.
Data set [25] is described as follows: Cmax in rat at 3 mg/kg, iv. More on the design: route intravenous, dose 3 mg/kg. The conditions noted are these: in vivo. Type of data set: ADME, organism-based.
A short description of data set [26]: AUC(0 to 24 hrs) in monkey at 25 mg/kg, po. Type of data set: ADME, organism-based, Macaca mulatta. Also on record: time < 24 hr, route oral, dose 25 mg/kg. The conditions noted are these: rhesus monkey, in vivo.
The nature of data set [27]: Cmax in monkey at 25 mg/kg, po. The class given is ADME, organism-based, Macaca mulatta. Also on record: route oral, dose 25 mg/kg. The conditions noted are these: rhesus monkey, in vivo.
Data set [28] can be described thus: Half life in monkey at 25 mg/kg, po. The class given is ADME, organism-based, Macaca mulatta. The conditions noted are these: rhesus monkey, in vivo.
Another data set addresses Plasma kallikrein (Homo sapiens, UniProt P03952). Put plainly: Inhibition of purified human plasma kallikrein assessed as inhibition constant using H-D-Pro-Phe-Arg-pNA.2HCl as substrate measured after 3 mins by microplate reader analysis.
The species named for a further data set is Homo sapiens. Put plainly: Selectivity index, ratio of IC50 for human trypsin to IC50 for human plasma kallikrein.

Chain of Plasma kallikrein (P03952 20-390 limits assumed): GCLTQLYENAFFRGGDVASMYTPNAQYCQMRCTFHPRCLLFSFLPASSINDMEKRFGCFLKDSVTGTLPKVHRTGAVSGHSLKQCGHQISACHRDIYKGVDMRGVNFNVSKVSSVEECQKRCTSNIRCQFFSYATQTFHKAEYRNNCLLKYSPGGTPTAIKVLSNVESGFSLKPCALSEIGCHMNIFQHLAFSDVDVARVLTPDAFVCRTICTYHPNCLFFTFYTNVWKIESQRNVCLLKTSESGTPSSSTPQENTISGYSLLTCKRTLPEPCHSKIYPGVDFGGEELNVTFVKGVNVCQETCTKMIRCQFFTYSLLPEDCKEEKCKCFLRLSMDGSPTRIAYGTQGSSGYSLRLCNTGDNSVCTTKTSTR
Chain of Plasma kallikrein (P03952 391-638 limits assumed): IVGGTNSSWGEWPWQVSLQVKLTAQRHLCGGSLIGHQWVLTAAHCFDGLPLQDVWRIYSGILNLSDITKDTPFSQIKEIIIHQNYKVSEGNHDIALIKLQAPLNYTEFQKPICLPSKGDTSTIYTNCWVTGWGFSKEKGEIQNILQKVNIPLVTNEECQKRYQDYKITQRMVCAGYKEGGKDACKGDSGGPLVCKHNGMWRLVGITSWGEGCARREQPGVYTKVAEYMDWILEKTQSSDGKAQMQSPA

Consider `N#Cc1cccc([C@@H](NCC2CC2)c2ccc(F)c(NC(=O)c3cc(C(F)(F)F)nn3-c3cccc(CN)c3)c2)c1` (stereo in doubt) [BEROTRALSTAT], for which the AUC(0-t) (commonly exposure summed from dosing to a finite time, without extrapolation to infinity) at 96 h was 1860 ng·h/mL in [1] and 6180 ng·h/mL in data set [5]. Also, the exposure AUC(0-t) at 24 h in data set [2] is 4780 ng·h/mL; in [8], 974 ng·h/mL; in [23] it was 1620 ng·h/mL; in data set [26], 4150 ng·h/mL. For the same molecule, the values for the solubility in data set [3] and in data set [17] were 160 µg/mL (≈ 284 µM) and 120 µg/mL (≈ 213 µM), respectively. The Cmax – broadly, the highest concentration seen after dosing – in data set [4] is 475 ng/mL; in data set [11], 673 ng/mL; in data set [18] it was 242 ng/mL; in [25] it was 773 ng/mL; in data set [27], 342 ng/mL. In addition, the CL/F (in general, clearance divided by bioavailability, as obtained after extravascular dosing) amounted to 73 mL/min/kg in data set [6] and 81 mL/min/kg in data set [15]. Also, the half-life (usually how long it takes for the measured level to halve) in data set [7] is 10.1 h; in [9] it was 18.3 h; in data set [10] it was 18.5 h; in data set [28] it was 22.7 h. Besides, the IC50 (usually the concentration at which inhibition is half-maximal) against Coagulation factor XII is greater than 50 µM; against Coagulation factor X it was greater than 50 µM; against Prothrombin it was greater than 50 µM; in data set [13], greater than 50 µM; against Plasminogen it was 3.97 µM; against Trypsin it was 11 µM. For the same molecule, the IC50 in data set [22] is greater than 50 µM. Moreover, the bioavailability (as a rule, dose-corrected exposure relative to a reference, in per cent) is 33% in data set [12] and 45% in data set [14]. Besides, the Tmax (commonly the time from dosing to the highest level) in data set [16] worked out at 2 h; in data set [20] it was 4.7 h. Besides, the AUC – broadly, concentration integrated over time – at 24 h in data set [19] is 2210 ng·h/mL. The clearance (as a rule, a measure of how efficiently the substance is removed, as volume per time) was 27 mL/min/kg in data set [21] and 30 mL/min/kg in data set [24].

On to `C=Cc1cc(C(=O)Nc2ccc(C(=N)N)cc2)c(-c2ccc(C(=O)NCC3CC3)nc2C(=O)O)cc1OC` [AVORALSTAT], for which the solubility (usually the concentration that dissolves in the medium under given conditions) came out at 1090 µg/mL (≈ 2120 µM) in [3] and 47000 µg/mL (≈ 91500 µM) in data set [17]. In addition, the Ki (in general, a dissociation constant, usually derived from enzyme kinetics or from competition with a known ligand) on Plasma kallikrein was 0.00026 µM. Also, in the data set filed under Homo sapiens, the Ratio IC50 was 8192.
